In patent US20240174744A1, “METHODS OF TREATMENT USING PROTEIN BINDERS TO IRHOM2 EPITOPES” (SCIRHOM GMBH, priority 2021, published 2024):

System: DSS-induced colitis (IBD)
Assay: DSS-induced colitis (IBD) model in humanized NCG mice
Assay type: in vivo, mouse
Details: 25 mg/kg i.p. every two days, 8 mice per group
Procedure: In the following study, an in vivo model was performed to verify the inhibitory effects of the antibodies of the present disclosure on DSS-induced colitis (IBD) in a mouse model for acute IBD. The experiment was carried out with female NOD/Shi-scid/IL-2Rγ null immunodeficient mouse strain (NCG). Mice were humanized using hematopoietic stem cells (CD34+) isolated from human cord blood following TransCure bioServices's proprietary humanization protocol. Only mice with a humanization rate (hCD45/total CD45) above 25% were used.
On day 1, mice were randomized based on the humanization rate and cord blood donors, acute colitis was induced by adding 3% of DSS (Sigma Aldrich, France) in drinking water (MilliQ water provided ad libitum) during […] from D1 to D7 and renewed every 2 days (only for groups #2, #3, #4, #5 and #6). For the recovery period, after the DSS cycle, the DSS solution was removed and replaced by MilliQ water (washout period) during 5 days from day 8 to day 12. […]
Endoscopy score was determined at D5 and D10. […] The endoscope was rectally inserted, and photographs of the endoscopic procedure were recorded. […]
Colon damages were evaluated during the endoscopy using TransCure bioServices's murine endoscopic index of colitis severity (MEICS) that consists of colon thickening, changes of vascular pattern, visible fibrin, granularity of mucosal surface and stool consistency as scoring parameters. […]
All mice were clinically monitored during the whole study for unexpected signs of distress, changes in body weight and evolution of disease severity. These parameters were recorded daily and each mouse was assigned a global IBD score, consisting of body weight, diarrhea & stool consistency and bleeding. The latter two were assessed by visually monitoring stool and mouse hairs around the anus and tail. Moreover, the mortality was also recorded.

| Substance | mice that survived the complete study period |
| --- | --- |
| Adalimumab | two out of 8 |
| Infliximab: Infliximab (Merck Sharp & Dohme, USA), comparator group #3 | two out of 8 |
| Tocilizumab: Tocilizumab (Roche, Switzerland), comparator group #4 | one out of 8 |
